System: ISR pathway (ATF4 translation), H4 ATF4-NLuc (clone 17) cell line
Experiment: ATF4 Nano Luciferase reporter integrated stress response (ISR) assay in H4 ATF4-NLuc cells
Format: cell-based
Details: human H4 neuroglioma ATF4-NLuc cells; compound 30 minutes, then 50 μm sodium arsenite for 6 hours; luminescence readout
From the text: Cellular stress leads to activation of the integrated stress response pathway through one of four eukaryotic initiation factor 2α kinases and halts global translation, while allowing for the translation of select transcripts like ATF4 (activating transcription factor 4) that are important for the response to cellular stress. During normal conditions, small open reading frames (ORFs) in the 5′ UTR of ATF4 occupy the ribosome and prevent translation of the coding sequence of ATF4. During stress conditions however, the ribosome scans past these upstream ORFs and preferentially begins translation at the coding sequence of ATF4. In this way, the translation, and thus protein level of ATF4 is a readout of ISR pathway activation. Thus, a fusion of the uORFs and the beginning of the coding sequence of ATF to a common cellular reporter like nano-luciferase allows for a sensitive and high-throughput readout of ISR pathway activity.
Compounds as provided herein were tested in the following assay. The ATF4 Nano Luciferase reporter was constructed by fusing the human full length 5′ untranslated region (5′-UTR) and a small portion of the coding sequence of the ATF4 gene upstream of the Nano Luciferase (NLuc) coding sequence lacking it's start codon. Specifically, nucleotides +1 through +364 (relative to the transcriptional start site) of ATF4 transcript variant 2 (NCBI NM_182810.2) flanked 5′ by EcoRI and 3′ by BamHI restriction enzyme sites were synthesized and cloned into the EcoRI/BamHI cloning sites of pLVX-EF1a-IRES-Puro lentivirus vector (Clontech). Lentiviral particles were produced with Lenti-X single shots (VSV-G, Clontech) according to the manufacturer's instructions and used to transduce a human H4 neuroglioma cell line (ATCC HT1B-148). H4 cells were selected with 1.25 μg/mL Puromycin, and clonal cell lines generated by limiting dilution. We utilized this cell line to generate an integrated stress response (ISR) assay to evaluate the activity of ISR pathway inhibitors via luminescence readout. The H4 ATF4-NLuc (clone 17) cell line is plated at a density of […] cells in 96-well or 384-well respectively in DMEM +10% fetal bovine serum. 24-hours later test compounds diluted in dimethyl sulfoxide (DMSO) are added for 30 minutes at 37° C., followed by ISR pathway activation with 50 μm sodium arsenite aqueous solution for 6 additional hours. Nano Glo luciferase reagent (N1150, Promega) is added according to manufacturer instructions and the luminescence signal (corresponding to the level of ATF4 translation and thus ISR pathway activation) is read with a standard plate reader with luminescence detection capabilities.
In the tables below, activity of the tested compounds is provided, and in Table 3 as follows: +++=0.003 μM<IC50<1 μM; ++=IC50 1-10 μM; +=IC50>10 μM.

SMILES | IC50 [µM]
O=C(COc1ccc(C(F)(F)F)cc1)N[C@@H]1CC[C@@H](C(=O)Nc2ccc3ccc(Cl)cc3n2)OC1 [Example 7, (2S,5R)-N-(7-chloro-2-quinolyl)-5-[[2-[4-(trifluoromethyl)phenoxy]acetyl]amino]tetrahydropyran-2-carboxamide] | 0.003 to 1
O=C(COc1ccc(C(F)(F)F)cc1)N[C@@H]1CC[C@@H](C(=O)N2C[C@@H]3[C@H](C2)[C@H]3C(F)(F)F)OC1 [Example 8, N-[(3R,6S)-6-[(1r,5s)-6-(trifluoromethyl)-3-azabicyclo[3.1.0]hexane-3-carbonyl]tetrahydropyran-3-yl]-2-[4-(trifluoromethyl)phenoxy]acetamide] | 1 to 10
O=C(COc1ccc(C(F)(F)F)cc1)N[C@@H]1CC[C@@H](C(=O)Nc2cc3ccc(Cl)cc3cn2)OC1 [Example 9, (2S,5R)-N-(7-chloro-3-isoquinolyl)-5-[[2-[4-(trifluoromethyl)phenoxy]acetyl]amino]tetrahydropyran-2-carboxamide] | 0.003 to 1
O=C(COc1ccc(C(F)(F)F)cc1)N[C@@H]1CC[C@@H](C(=O)N2CCc3nc(C(F)(F)F)ccc3C2)OC1 [Example 10, N-[(3R,6S)-6-[2-(trifluoromethyl)-7,8-dihydro-5H-1,6-naphthyridine-6-carbonyl]tetrahydropyran-3-yl]-2-[4-(trifluoromethyl)phenoxy] acetamide] | 0.003 to 1
O=C(COc1ccc(C(F)(F)F)cc1)N[C@@H]1CC[C@@H](C(=O)N2Cc3ccc(C(F)(F)F)cc3C2)OC1 [Example 11, N-[(3R,6S)-6-[5-(trifluoromethyl)isoindoline-2-carbonyl]tetrahydropyran-3-yl]-2-[4-(trifluoromethyl)phenoxy] acetamide] | 0.003 to 1
O=C(N[C@@H]1CC[C@@H](C(=O)N[C@H]2C[C@@H](COC(F)(F)F)C2)OC1)c1ccc2cc(C(F)(F)F)ccc2n1 [Example 12, N-[(3R,6S)-6-[[3-cis-(trifluoromethoxymethyl)cyclobutyl]carbamoyl]tetrahydropyran-3-yl]-6-(trifluoromethyl) quinoline-2-carboxamide] | 0.003 to 1

Other lines, results leading:

IC50 [µM] | SMILES
0.003 to 1 | O=C(COc1ccc(C(F)(F)F)cc1)N[C@@H]1CC[C@@H](C(=O)NCc2ccc(C(F)(F)F)cc2)OC1 [Example 1, (2S,5R)-5-[[2-[4-(trifluoromethyl)phenoxy]acetyl]amino]-N-[[4-(trifluoromethyl)phenyl]methyl]tetrahydropyran-2-carboxamide]
0.003 to 1 | O=C(COc1ccc(C(F)(F)F)cc1)N[C@@H]1CC[C@@H](C(=O)Nc2ccc3cc(Cl)ccc3n2)OC1 [Example 2, (2S,5R)—N-(6-chloro-2-quinolyl)-5-[[2-[4-(trifluoromethyl)phenoxy]acetyl]amino]tetrahydropyran-2-carboxamide]
0.003 to 1 | CC1CN(C(=O)[C@@H]2CC[C@@H](NC(=O)COc3ccc(Cl)cc3)CO2)Cc2ccc(Cl)cc21 (stereo partly drawn) [Example 3, 2-(4-chlorophenoxy)-N-[(3R,6S)-6-(6-chloro-4-methyl-3,4-dihydro-1H-isoquinoline-2-carbonyl)tetrahydropyran-3-yl]acetamide]
0.003 to 1 | O=C(COc1ccc(C(F)(F)F)cc1)N[C@@H]1CC[C@@H](C(=O)NCCCOC(F)(F)F)OC1 [Example 4, (2S,5R)-N-[3-(trifluoromethoxy)propyl]-5-[[2-[4-(trifluoromethyl)phenoxy]acetyl]amino]tetrahydropyran-2-carboxamide]
0.003 to 1 | O=C(COc1ccc(C(F)(F)F)cc1)N[C@@H]1CC[C@@H](C(=O)N2CCc3cc(C(F)(F)F)ccc3C2)OC1 [Example 5, N-[(3R,6S)-6-[6-(trifluoromethyl)-3,4-dihydro-1H-isoquinoline-2-carbonyl]tetrahydropyran-3-yl]-2-[4-(trifluoromethyl)phenoxy] acetamide]
0.003 to 1 | CC1c2ccc(Cl)cc2CCN1C(=O)[C@@H]1CC[C@@H](NC(=O)COc2ccc(Cl)cc2)CO1 (stereo partly drawn) [Example 6, 2-(4-chlorophenoxy)-N-[(3R,6S)-6-(6-chloro-1-methyl-3,4-dihydro-1H-isoquinoline-2-carbonyl)tetrahydropyran-3-yl]acetamide]

Reference: US20220177456A1, “COMPOUNDS, COMPOSITIONS AND METHODS” (Denali Therapeutics Inc., priority 2019, published 2022)
